From patent US10526323B2, “Indazole and azaindazole substituted compounds as mGluR4 allosteric potentiators, compositions, and methods of treating neurological dysfunction” (Vanderbilt University, priority 2015, dated 2020)

biological target: mGluR4 (UniProt Q14833); assay: mGluR4 potentiation assay: increase in response to an EC20 concentration of agonist (species not given); format: cell-based; conditions: EC50 for potentiation of mGluR4; table does not state human or rat
Method: The disclosed compounds and compositions can be evaluated for their ability to act as a potentiator of metabotropic glutamate receptor activity, in particular mGluR4 activity, by any suitable known methodology known in the art. For example, Chinese Hamster Ovary (CHO) cells transfected with human mGluR4 or […] co-transfected with rat mGluR4 and the G-protein regulated Inwardly Rectifying Potassium channel (GIRK) were plated in clear bottom assay plates for assay in a Hamamatsu FDSS Fluorometric Plate Reader. The cells were loaded with either a Ca2+-sensitive fluorescent dye or the thallium responsive dye and the plates were washed and placed into a suitable kinetic plate reader. For human mGluR4 assays, a fluorescence baseline was established for 3-5 seconds, the disclosed compounds were then added to the cells, and the response in cells was measured. Approximately two and a half minutes later, a concentration of mGluR4 orthosteric agonist (e.g. glutamate or L-AP4) eliciting approximately 20% (EC20) of the maximal agonist response was added to the cells, and the response was measured. Two minutes later, a concentration of mGluR4 agonist (e.g. glutamate or L-AP4) eliciting 80% (EC80) of the maximal agonist response was added to the cells, and the response was measured. For rat mGluR4/GIRK experiments, a baseline was established for approximately five seconds, disclosed compounds were added, and either an EC20 or EC80 concentration of agonist was added approximately two and one half minutes later. Potentiation of the agonist response of mGluR4 by the disclosed compounds was observed as an increase in response to the EC20 concentration of agonist in the presence of compound compared to the response to agonist in the absence of compound. Similarly, antagonism of the agonist response of mGluR4 by the disclosed compounds was observed as a decrease in response to the EC80 concentration of agonist in the presence of compound compared to the response to agonist in the absence of compound.
The above described assay operated in two modes. In the first mode, a range of concentrations of the disclosed compounds are added to cells, followed by a single fixed concentration of agonist. If the compound acts as a potentiator, an EC50 value for potentiation and a maximum extent of potentiation by the compound at this concentration of agonist is determined by non-linear curve fitting. If the compound acts as a noncompetitive antagonist, an IC50 value is determined by non-linear curve fitting. In the second mode, several fixed concentrations of the disclosed compounds are added to various wells on a plate, followed by a range in concentrations of agonist for each concentration of disclosed compound. The EC50 values for the agonist at each concentration of compound are determined by non-linear curve fitting. A decrease in the EC50 value of the agonist with increasing concentrations of the sample compound (a leftward shift of the agonist concentration-response curve) is an indication of the degree of mGluR4 potentiation at a given concentration of the sample compound. A decrease in the maximal response of the agonist with increasing concentrations of the sample compounds, with or without a rightward shift in agonist potency, is an indication of the degree of noncompetitive antagonism at mGluR4. The second mode also indicates whether the sample compounds also affect the maximum response to mGluR4 to agonists.
These compounds are positive allosteric modulators (potentiators) of human and rat mGluR4 and were selective for mGluR4 compared to the other seven subtypes of metabotropic glutamate receptors.

Row | Structure (SMILES) | EC50 [nM]
1 | Cn1nc(C2CC2)c2ccc(Nc3n[nH]c4cccnc34)cc21 [Example 1, N-(3-cyclopropyl-1-methyl-1H-indazol-6-yl)-1H-pyrazolo[4,3-b]pyridin-3-amine] | 43
2 | Cn1ncc2c(Cl)cc(Nc3n[nH]c4cccnc34)cc21 [Example 2, N-(4-chloro-1-methyl-1H-indazol-6-yl)-1H-pyrazolo[4,3-b]pyridin-3-amine] | 29
3 | Cn1cc2c(Cl)cc(Nc3n[nH]c4cccnc34)cc2n1 [Example 3, N-(4-chloro-2-methyl-2H-indazol-6-yl)-1H-pyrazolo[4,3-b]pyridin-3-amine] | 525
4 | Cn1nc(C2CC2)c2ccc(Nc3n[nH]c4nccnc34)cc21 [Example 4, N-(3-cyclopropyl-1-methyl-1H-indazol-6-yl)-1H-pyrazolo[3,4-b]pyrazin-3-amine] | 20
5 | Cn1nc(C2CC2)c2ccc(Nc3n[nH]c4ncc(F)cc34)cc21 [Example 5, N-(3-cyclopropyl-1-methyl-1H-indazol-6-yl)-5-fluoro-1H-pyrazolo[3,4-b]pyridin-3-amine] | 364
6 | Cn1ncc2c(Cl)cc(Nc3n[nH]c4ncccc34)cc21 [Example 6, N-(4-chloro-1-methyl-1H-indazol-6-yl)-1H-pyrazolo[3,4-b]pyridin-3-amine] | 51
7 | Cn1nc(C2CC2)c2ccc(Nc3n[nH]c4ccc(F)cc34)cc21 [Example 7, N-(3-cyclopropyl-1-methyl-1H-indazol-6-yl)-5-fluoro-1H-indazol-3-amine] | 1230
8 | Cn1ncc2c(Cl)cc(Nc3n[nH]c4nccnc34)cc21 [Example 8, N-(4-chloro-1-methyl-1H-indazol-6-yl)-1H-pyrazolo[3,4-b]pyrazin-3-amine] | 16
9 | Cn1ncc2c(Cl)cc(Nc3n[nH]c4ccccc34)cc21 [Example 9, N-(4-chloro-1-methyl-1H-indazol-6-yl)-1H-indazol-3-amine] | 64
10 | Cn1cc2c(Cl)cc(Nc3n[nH]c4nccnc34)cc2n1 [Example 10, N-(4-chloro-2-methyl-2H-indazol-6-yl)-1H-pyrazolo[3,4-b]pyrazin-3-amine] | 515
11 | Cn1nc(C2CC2)c2ccc(Nc3n[nH]c4cc(F)ccc34)cc21 [Example 11, N-(3-cyclopropyl-1-methyl-1H-indazol-6-yl)-6-fluoro-1H-indazol-3-amine] | 4220
12 | Cn1nc(C2CC2)c2ccc(Nc3n[nH]c4ccccc34)cc21 [Example 12, N-(3-cyclopropyl-1-methyl-1H-indazol-6-yl)-1H-indazol-3-amine] | 128
13 | Cn1nc(C2CC2)c2ccc(Nc3n[nH]c4ncccc34)cc21 [Example 13, N-(3-cyclopropyl-1-methyl-1H-indazol-6-yl)-1H-pyrazolo[3,4-b]pyridin-3-amine] | 43
14 | Cn1nc(C2CC2)c2ccc(Nc3n[nH]c4c3CC(F)(F)CC4)cc21 [Example 14, 3-cyclopropyl-N-(5,5-difluoro-4,5,6,7-tetrahydro-1H-indazol-3-yl)-1-methyl-1H-indazol-6-amine] | > 10000
15 | Cc1nn(C)c2cc(Nc3n[nH]c4cccnc34)ccc12 [Example 15, N-(1,3-dimethyl-1H-indazol-6-yl)-1H-pyrazolo[4,3-b]pyridin-3-amine] | 78
16 | CC(C)n1nc(C2CC2)c2ccc(Nc3n[nH]c4cccnc34)cc21 [Example 16, N-(3-cyclopropyl-1-isopropyl-1H-indazol-6-yl)-1H-pyrazolo[4,3-b]pyridin-3-amine] | > 10000
17 | CC(C)n1nc(C2CC2)c2ccc(Nc3n[nH]c4nccnc34)cc21 [Example 17, N-(3-cyclopropyl-1-isopropyl-1H-indazol-6-yl)-1H-pyrazolo[3,4-b]pyrazin-3-amine] | > 10000
18 | Cc1nn(C(C)C)c2cc(Nc3n[nH]c4nccnc34)ccc12 [Example 18, N-(1-isopropyl-3-methyl-1H-indazol-6-yl)-1H-pyrazolo[3,4-b]pyrazin-3-amine] | > 10000

Row | Structure (SMILES) | EC50 [nM]
19 | Cc1nn(C(C)C)c2cc(Nc3n[nH]c4ccccc34)ccc12 [Example 19, N-(1-isopropyl-3-methyl-1H-indazol-6-yl)-1H-indazol-3-amine] | > 10000
20 | Cc1nn(C(C)C)c2cc(Nc3n[nH]c4c3CCCC4)ccc12 [Example 20, 1-isopropyl-3-methyl-N-(4,5,6,7-tetrahydro-1H-indazol-3-yl)-1H-indazol-6-amine] | > 10000
21 | CC(=O)c1nn(C)c2cc(Nc3n[nH]c4cccnc34)ccc12 [Example 21, 1-(6-((1H-pyrazolo[4,3-b]pyridin-3-yl)amino)-1-methyl-1H-indazol-3-yl)ethan-1-one] | 764
22 | [2H]C([2H])([2H])n1nc(C2CC2)c2ccc(Nc3n[nH]c4nccnc34)cc21 [Example 22, N-(3-cyclopropyl-1-(methyl-d3)-1H-indazol-6-yl)-1H-pyrazolo[3,4-b]pyrazin-3-amine] | 10
23 | [2H]C([2H])([2H])n1nc(C2CC2)c2ccc(Nc3n[nH]c4cccnc34)cc21 [Example 23, N-(3-cyclopropyl-1-(methyl-d3)-1H-indazol-6-yl)-1H-pyrazolo[4,3-b]pyridin-3-amine] | 36
24 | CCc1nn(C)c2cc(Nc3n[nH]c4cccnc34)ccc12 [Example 24, N-(3-ethyl-1-methyl-1H-indazol-6-yl)-1H-pyrazolo[4,3-b]pyridin-3-amine] | 38
25 | Cn1nc(NC(=O)C(F)(F)F)c2ccc(Nc3n[nH]c4cccnc34)cc21 [Example 25, N-(6-((1H-pyrazolo[4,3-b]pyridin-3-yl)amino)-1-methyl-1H-indazol-3-yl)-2,2,2-trifluoroacetamide] | 313
26 | Cc1cc(Cn2ncc3ncc(Nc4n[nH]c5ccccc45)cc32)no1 [Example 26, N-(1H-indazol-3-yl)-1-((5-methylisoxazol-3-yl)methyl)-1H-pyrazolo[4,3-b]pyridin-6-amine] | > 10000
27 | c1ccc2c(Nc3cnc4cnn(CC5CCC5)c4c3)n[nH]c2c1 [Example 27, 1-(cyclobutylmethyl)-N-(1H-indazol-3-yl)-1H-pyrazolo[4,3-b]pyridin-6-amine] | > 10000
28 | Cn1nc(C2(C)CC2)c2ccc(Nc3n[nH]c4cccnc34)cc21 [Example 28, N-(1-methyl-3-(1-methylcyclopropyl)-1H-indazol-6-yl)-1H-pyrazolo[4,3-b]pyridin-3-amine] | 68
29 | Cn1nc(C2(C)CC2)c2ccc(Nc3n[nH]c4nccnc34)cc21 [Example 29, N-(1-methyl-3-(1-methylcyclopropyl)-1H-indazol-6-yl)-1H-pyrazolo[3,4-b]pyrazin-3-amine] | 25
30 | Cn1nc(C2(C)CC2)c2ccc(Nc3n[nH]c4ncccc34)cc21 [Example 30, N-(1-methyl-3-(1-methylcyclopropyl)-1H-indazol-6-yl)-1H-pyrazolo[3,4-b]pyridin-3-amine] | 129
31 | Cn1nc(Cl)c2ccc(Nc3n[nH]c4cccnc34)cc21 [Example 31, N-(3-chloro-1-methyl-1H-indazol-6-yl)-1H-pyrazolo[4,3-b]pyridin-3-amine] | 171
32 | Cc1cc(Cn2ncc3c(Nc4n[nH]c5cccnc45)cccc32)no1 [Example 32, N-(1-((5-methylisoxazol-3-yl)methyl)-1H-indazol-4-yl)-1H-pyrazolo[4,3-b]pyridin-3-amine] | 571
33 | Cn1ncc2c(Nc3n[nH]c4cccnc34)cccc21 [Example 33, N-(1-methyl-1H-indazol-4-yl)-1H-pyrazolo[4,3-b]pyridin-3-amine] | > 10000
34 | c1cnc2c(Nc3cccc4c3cnn4CC3CCC3)n[nH]c2c1 [Example 34, N-(1-(cyclobutylmethyl)-1H-indazol-4-yl)-1H-pyrazolo[4,3-b]pyridin-3-amine] | 4300
35 | Cn1nc(N2CCOCC2)c2ccc(Nc3n[nH]c4cccnc34)cc21 [Example 35, N-(1-methyl-3-morpholino-1H-indazol-6-yl)-1H-pyrazolo[4,3-b]pyridin-3-amine] | 992
36 | CC(C)CC1CC(=O)N(c2nn(C)c3cc(Nc4n[nH]c5cccnc45)ccc23)C1 (stereo not drawn) [Example 36, N-(6-((1H-pyrazolo[4,3-b]pyridin-3-yl)amino)-1-methyl-1H-indazol-3-yl)-4-isobutylpyrrolidin-2-one] | 526
